Experimental data reported in ChEMBL document CHEMBL1201862, “PubChem BioAssay data set” (2004).
Calls of active or inactive are those of the source.

Columns and labels:
[1] = target: Cytochrome P450 2D6 (Homo sapiens, UniProt P10635);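 note: CYP2D6 member of a cytochrome P450 panel assay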
[2] = target: Cytochrome P450 3A4 (Homo sapiens, UniProt P08684);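 note: CYP3A4 tested as one member of a cytochrome P450 panel screen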
[3] = target: Voltage-gated inwardly rectifying potassium channel KCNH2 (Homo sapiens, UniProt Q12809); conditions: Potency;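 note: confirmatory quantitative high-throughput screen measuring inhibition of hERG channel activity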
[4] = target: Cysteine protease ATG4B (Homo sapiens, UniProt Q9Y4P1); type: functional;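 note: Fluorescence-based dose-response confirmation assay measuring inhibition of ATG4B activity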
[5] = Shn3 3'UTR reporter inhibitors, dose response, cell-based, Clone20 osteoblasts, firefly luciferase, cherry-picked (AID 624132); type: functional;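 note: firefly luciferase luminescence from reporter carrying the Shn3 3'UTR in osteoblasts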
[6] = NIH-3T3 fibroblast cytotoxicity, dose response, cytotoxicity control, cell-based, fluorescence, Alamar Blue, secondary assay (AID 2327); type: functional;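 note: NIH-3T3 mouse fibroblasts cultured with fluconazole at 8 µg/mL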
[7] = HepG2 cell cytotoxicity, dose response, cytotoxicity control for Shn3 inhibitor project, CellTiter-Glo, cherry-picked (AID 624134); type: functional, cell-based
[8] = target: T1, Ubiquitin-conjugating enzyme E2 N (Homo sapiens, UniProt P61088); type: functional;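 note: Dose-response confirmation in a TR-FRET assay detecting UBC13-driven polyubiquitin chain formation, inhibition measured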
T1 sequence (P61088 whole entry): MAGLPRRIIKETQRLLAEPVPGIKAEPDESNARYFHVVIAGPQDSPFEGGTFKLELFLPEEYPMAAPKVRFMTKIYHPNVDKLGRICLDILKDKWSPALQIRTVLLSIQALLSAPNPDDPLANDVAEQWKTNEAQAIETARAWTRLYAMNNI

[9] = target: Phospholipase A2 (Homo sapiens, UniProt P04054); type: functional;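 note: confirmatory dose-response counterscreen on phospholipase A2, testing hits that came from an ultra-high-throughput screen for ATG4B inhibitors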
[10] = control 3'UTR Renilla luciferase suppression, dose response, counter-screen for Shn3 inhibitor project, cell-based, Clone20-Shn3RL, cherry-picked (AID 624133); type: functional
[11] = C. albicans growth with fluconazole, confirmation, fluorescence, retest (AID 2467); type: functional, cell-based
[12] = cytotoxicity in HEK-293T cells, dose response, cytotoxicity control for BCR NF-kB inhibitor project, luminescence, B-cell screen hits (AID 489021); type: functional, cell-based;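 note: HEK-293T cells carrying an NF-kB luciferase reporter; cells exposed to compound for about 14 hours before viability readout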
[13] = system: HEK293; assay: cytotoxicity in HEK293T NF-kB-Luc cells, SAR follow-up, cytotoxicity control for NF-kB activator project, cell-based, resazurin fluorescence (AID 493251); type: functional; conditions: Homo sapiens
[14] = target: T2, Microphthalmia-associated transcription factor (Homo sapiens, UniProt O75030); assay: TRPM1 promoter luciferase signal decrease, dose response, MITF inhibitor project, cell-based, SK-MEL-5, cherry-picked, set 3 (AID 493073); type: functional
T2 sequence (O75030 whole entry): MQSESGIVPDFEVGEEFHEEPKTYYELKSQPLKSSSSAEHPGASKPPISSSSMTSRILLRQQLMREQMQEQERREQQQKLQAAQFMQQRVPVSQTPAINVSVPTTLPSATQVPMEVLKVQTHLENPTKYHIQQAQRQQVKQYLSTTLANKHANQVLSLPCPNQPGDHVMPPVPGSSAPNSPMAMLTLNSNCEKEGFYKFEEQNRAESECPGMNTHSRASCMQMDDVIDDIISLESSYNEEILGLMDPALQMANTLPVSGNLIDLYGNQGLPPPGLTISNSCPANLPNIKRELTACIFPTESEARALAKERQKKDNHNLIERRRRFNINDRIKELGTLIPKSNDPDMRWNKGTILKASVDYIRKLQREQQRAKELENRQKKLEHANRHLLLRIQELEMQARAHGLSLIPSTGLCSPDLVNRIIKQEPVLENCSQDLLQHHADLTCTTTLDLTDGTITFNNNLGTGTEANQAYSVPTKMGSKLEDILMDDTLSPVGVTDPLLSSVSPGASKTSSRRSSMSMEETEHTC

[15] = system: A-375; assay: A375 melanoma cell viability reduction, dose response, counter-screen for MITF modulator project, cherry-pick samples, set 2 (AID 540335); type: functional, cell-based; conditions: Homo sapiens
[16] = non-specific cell cytotoxicity, dose response, cytotoxicity control for PAX8 inhibitor project, plate reader, dry powder samples (AID 743021); type: functional, cell-based
[17] = system: INS1; assay: beta cell apoptosis inhibitors, cytokine rescue, dose response, luminescence, retest (AID 449756); type: functional, cell-based; conditions: Rattus norvegicus;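 note: cell death triggered by IL-1 beta plus TNF-alpha plus IFN-gamma mixture; protective hits raise ATP signal compared with cytokine alone wells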
[18] = target: T3, Heat shock factor protein 1 (Mus musculus, UniProt P38532); assay: inhibition of MG132-induced HSE-luciferase signal, confirmation, cell-based, NIH3T3, luminescence, dose retest (AID 2382); type: functional;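 note: NIH3T3 fibroblasts with HSF1-driven luciferase reporter stressed by proteasome inhibitor MG132; luminescence from HSF1-driven luciferase expression after 8 hours of MG132 stress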
T3 sequence (P38532 whole entry): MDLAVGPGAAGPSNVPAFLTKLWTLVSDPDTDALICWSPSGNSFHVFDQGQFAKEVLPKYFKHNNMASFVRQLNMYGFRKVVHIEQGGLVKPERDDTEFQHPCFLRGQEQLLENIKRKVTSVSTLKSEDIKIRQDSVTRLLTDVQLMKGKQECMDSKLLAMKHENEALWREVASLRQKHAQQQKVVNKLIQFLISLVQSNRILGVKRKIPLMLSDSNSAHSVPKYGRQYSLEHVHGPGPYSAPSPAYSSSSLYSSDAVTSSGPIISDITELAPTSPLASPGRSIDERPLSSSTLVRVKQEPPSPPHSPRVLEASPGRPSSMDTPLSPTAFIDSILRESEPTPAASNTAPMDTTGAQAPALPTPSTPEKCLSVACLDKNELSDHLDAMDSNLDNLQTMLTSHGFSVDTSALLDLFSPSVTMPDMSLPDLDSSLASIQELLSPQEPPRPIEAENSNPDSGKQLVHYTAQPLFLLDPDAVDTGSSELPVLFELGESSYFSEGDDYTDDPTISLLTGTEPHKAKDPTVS

[19] = target: Paired box protein Pax-8 (Homo sapiens, UniProt Q06710); assay: inhibitors of PAX8-driven TPO luciferase reporter, dose response, RMG-I cells, cherry-pick (AID 687027); type: functional, cell-based;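 note: luciferase reporter driven by Pax8 target thyroperoxidase promoter measured by SteadyGlo luminescence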
[20] = target: T4, Hexokinase-1 (Homo sapiens, UniProt P19367); assay: HK1 enzyme inhibition by HKDC1 hits, SAR follow-up, selectivity assay for HKDC1 inhibitor project, biochemical, set 2, resazurin fluorescence coupled readout (AID 588356); type: functional
T4 sequence (P19367 whole entry): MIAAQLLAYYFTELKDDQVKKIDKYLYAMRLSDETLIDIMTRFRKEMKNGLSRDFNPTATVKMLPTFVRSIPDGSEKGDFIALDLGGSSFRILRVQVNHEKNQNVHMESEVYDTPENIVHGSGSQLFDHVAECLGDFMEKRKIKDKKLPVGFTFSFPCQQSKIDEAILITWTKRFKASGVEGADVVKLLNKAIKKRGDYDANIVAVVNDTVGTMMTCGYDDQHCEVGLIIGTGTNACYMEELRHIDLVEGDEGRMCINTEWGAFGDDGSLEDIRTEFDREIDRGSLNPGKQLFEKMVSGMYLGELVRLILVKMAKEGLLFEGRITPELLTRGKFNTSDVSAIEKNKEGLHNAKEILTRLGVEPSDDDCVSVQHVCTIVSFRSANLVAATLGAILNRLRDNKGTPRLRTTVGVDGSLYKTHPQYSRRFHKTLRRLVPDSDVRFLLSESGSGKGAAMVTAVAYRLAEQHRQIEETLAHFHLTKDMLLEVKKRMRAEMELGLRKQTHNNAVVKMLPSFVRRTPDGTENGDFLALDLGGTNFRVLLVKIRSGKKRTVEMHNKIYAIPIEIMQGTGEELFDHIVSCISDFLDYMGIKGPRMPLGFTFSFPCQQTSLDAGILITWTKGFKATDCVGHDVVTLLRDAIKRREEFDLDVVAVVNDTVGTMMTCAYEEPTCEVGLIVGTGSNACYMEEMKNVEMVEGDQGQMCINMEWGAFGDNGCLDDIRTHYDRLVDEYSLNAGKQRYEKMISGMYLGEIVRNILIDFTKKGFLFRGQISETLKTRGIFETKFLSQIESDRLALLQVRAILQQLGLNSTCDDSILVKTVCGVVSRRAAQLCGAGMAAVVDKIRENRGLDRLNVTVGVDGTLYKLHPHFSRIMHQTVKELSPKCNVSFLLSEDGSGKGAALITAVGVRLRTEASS

[21] = target: T5, Hexokinase HKDC1 (Homo sapiens, UniProt Q2TB90); assay: HKDC1 hexokinase inhibitors, SAR follow-up, biochemical, set 2 (AID 588355); type: functional
T5 sequence (Q2TB90 whole entry): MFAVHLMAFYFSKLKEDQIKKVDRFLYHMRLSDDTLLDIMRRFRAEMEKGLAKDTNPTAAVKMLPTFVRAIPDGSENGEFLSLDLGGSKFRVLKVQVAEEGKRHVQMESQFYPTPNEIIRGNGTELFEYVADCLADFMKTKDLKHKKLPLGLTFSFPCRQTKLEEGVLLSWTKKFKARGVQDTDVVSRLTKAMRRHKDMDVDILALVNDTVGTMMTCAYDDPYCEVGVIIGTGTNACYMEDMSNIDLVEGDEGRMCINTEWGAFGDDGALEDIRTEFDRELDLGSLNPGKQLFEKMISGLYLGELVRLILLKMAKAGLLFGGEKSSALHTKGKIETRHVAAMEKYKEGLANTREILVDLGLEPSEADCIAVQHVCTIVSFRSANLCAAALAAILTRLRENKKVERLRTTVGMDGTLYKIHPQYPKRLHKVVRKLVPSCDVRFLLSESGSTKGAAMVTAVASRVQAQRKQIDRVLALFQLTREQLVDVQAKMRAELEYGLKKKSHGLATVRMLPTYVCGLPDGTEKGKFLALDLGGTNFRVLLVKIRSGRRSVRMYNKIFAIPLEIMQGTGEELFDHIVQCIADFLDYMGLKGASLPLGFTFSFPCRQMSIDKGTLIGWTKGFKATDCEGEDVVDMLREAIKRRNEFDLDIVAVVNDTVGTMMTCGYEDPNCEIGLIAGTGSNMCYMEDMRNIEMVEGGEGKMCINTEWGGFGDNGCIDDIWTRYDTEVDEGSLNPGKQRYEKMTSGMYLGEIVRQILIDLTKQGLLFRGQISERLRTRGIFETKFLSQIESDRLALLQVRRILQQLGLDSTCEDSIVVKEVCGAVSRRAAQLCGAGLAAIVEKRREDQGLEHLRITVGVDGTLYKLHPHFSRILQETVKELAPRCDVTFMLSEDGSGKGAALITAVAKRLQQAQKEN

[22] = target: Luciferin 4-monooxygenase (Photinus pyralis, UniProt P08659); assay: firefly luciferase enzyme inhibitors, dose response, biochemical, luminescence (AID 1891)
[23] = Luminescence Cell-Based Dose Confirmation HTS to Identify Inhibitors of Platelet Dense Granule Release. [Related pubchem assays: 1663 (Primary HTS), 1678 (Summary of Project)]; type: functional
[24] = inhibitors of firefly luciferase expression or activity, dose response, H4 neuroglioma cells, luminescence (AID 1990); type: functional, cell-based
[25] = Luminescence Cell-Based Dose Response HTS to Identify Inhibitors of 5'UTR Stem-Loop Driven Prion Protein mRNA Translation in H4 Neuroglioblastoma Cells. [Related pubchem assays: 1827 (Project Summary), 1813 (Primary HTS)]; type: functional
[26] = target: Induced myeloid leukemia cell differentiation protein Mcl-1 (Homo sapiens, UniProt Q07820); type: functional
[27] = target: Dual specificity tyrosine-phosphorylation-regulated kinase 1A (Rattus norvegicus, UniProt Q63470); type: biochemical, Homo sapiens
[28] = target: Dual specificity protein kinase CLK1 (Homo sapiens, UniProt P49759); assay: CLK1 kinase inhibitors, off-target check, dose response, selectivity assay for Dyrk1A inhibitor project, biochemical, cherry-picked samples (AID 588811)
[29] = target: Tyrosyl-DNA phosphodiesterase 2 (Homo sapiens, UniProt O95551); assay: human TDP2 enzyme inhibitors, dose response, biochemical, epi absorbance, IC50 (AID 743297)
[30] = system: CHO; assay: cytotoxicity in TLR9-MyD88 CHO cells, dose response, cytotoxicity control for TLR9-MyD88 binding inhibitor project, cell-based, luminescence (AID 588339); type: functional, hamster; conditions: Cricetulus griseus;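 note: CHO cells stably coexpressing TLR9 and MyD88 fusions from primary screen; compound exposure lasted 48 hours before viability readout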
[31] = target: Short transient receptor potential channel 6 (Mus musculus, UniProt Q61143); assay: TRPC6 inhibition potency of TRPC4 inhibitor analogs, dose response, selectivity assay for selective TRPC4 inhibitor project, HEK293 cells, membrane potential dye, IC50 (AID 492987); type: functional, cell-based

Chain of Paired box protein Pax-8 (Q06710 whole entry): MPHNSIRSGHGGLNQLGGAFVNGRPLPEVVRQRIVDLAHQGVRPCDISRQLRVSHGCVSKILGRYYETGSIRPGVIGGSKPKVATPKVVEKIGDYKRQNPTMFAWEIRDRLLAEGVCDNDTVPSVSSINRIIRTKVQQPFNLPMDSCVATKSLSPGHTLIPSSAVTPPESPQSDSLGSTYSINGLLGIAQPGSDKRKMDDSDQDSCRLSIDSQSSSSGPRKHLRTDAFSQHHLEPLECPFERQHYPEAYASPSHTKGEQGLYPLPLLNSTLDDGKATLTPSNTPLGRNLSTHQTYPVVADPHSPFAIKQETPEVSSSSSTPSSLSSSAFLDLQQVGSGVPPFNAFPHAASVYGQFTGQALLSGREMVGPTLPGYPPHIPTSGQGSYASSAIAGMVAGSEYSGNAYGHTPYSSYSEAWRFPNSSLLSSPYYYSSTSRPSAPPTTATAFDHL
Chain of Phospholipase A2 (P04054 whole entry): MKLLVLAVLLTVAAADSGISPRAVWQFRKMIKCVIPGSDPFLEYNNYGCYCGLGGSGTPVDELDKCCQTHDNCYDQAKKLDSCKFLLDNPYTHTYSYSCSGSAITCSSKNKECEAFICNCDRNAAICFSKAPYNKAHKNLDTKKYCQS
Chain of Voltage-gated inwardly rectifying potassium channel KCNH2 (Q12809 whole entry): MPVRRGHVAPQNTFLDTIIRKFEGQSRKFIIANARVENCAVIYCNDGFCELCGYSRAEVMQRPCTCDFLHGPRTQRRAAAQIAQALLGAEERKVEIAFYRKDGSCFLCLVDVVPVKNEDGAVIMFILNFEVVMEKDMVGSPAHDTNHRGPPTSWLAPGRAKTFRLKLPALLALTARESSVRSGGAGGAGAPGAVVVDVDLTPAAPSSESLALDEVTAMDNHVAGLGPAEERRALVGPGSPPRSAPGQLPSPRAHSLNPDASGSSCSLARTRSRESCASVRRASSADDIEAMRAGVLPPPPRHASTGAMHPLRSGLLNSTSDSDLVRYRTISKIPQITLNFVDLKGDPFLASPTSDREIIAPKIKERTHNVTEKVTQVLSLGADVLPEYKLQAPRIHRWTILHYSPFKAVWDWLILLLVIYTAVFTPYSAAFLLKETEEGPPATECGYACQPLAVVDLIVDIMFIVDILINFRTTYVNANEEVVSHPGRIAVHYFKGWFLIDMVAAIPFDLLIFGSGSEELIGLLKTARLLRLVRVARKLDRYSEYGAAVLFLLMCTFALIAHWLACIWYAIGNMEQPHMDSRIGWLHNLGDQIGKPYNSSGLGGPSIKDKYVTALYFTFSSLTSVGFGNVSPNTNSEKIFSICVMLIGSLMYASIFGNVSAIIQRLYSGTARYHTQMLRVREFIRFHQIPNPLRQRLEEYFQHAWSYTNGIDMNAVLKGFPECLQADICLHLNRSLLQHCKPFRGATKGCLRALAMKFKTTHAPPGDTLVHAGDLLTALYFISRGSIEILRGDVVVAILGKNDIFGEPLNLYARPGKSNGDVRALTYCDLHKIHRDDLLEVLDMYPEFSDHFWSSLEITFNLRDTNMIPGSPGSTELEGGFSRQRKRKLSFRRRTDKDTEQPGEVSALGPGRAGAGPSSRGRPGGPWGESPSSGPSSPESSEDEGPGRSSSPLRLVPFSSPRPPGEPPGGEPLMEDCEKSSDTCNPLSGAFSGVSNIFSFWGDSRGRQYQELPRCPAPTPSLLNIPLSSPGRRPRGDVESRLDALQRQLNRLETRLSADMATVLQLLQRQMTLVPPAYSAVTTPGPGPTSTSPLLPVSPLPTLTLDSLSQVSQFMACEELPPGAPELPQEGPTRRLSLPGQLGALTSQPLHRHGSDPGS
Chain of Tyrosyl-DNA phosphodiesterase 2 (O95551 whole entry, the tested form may be a part): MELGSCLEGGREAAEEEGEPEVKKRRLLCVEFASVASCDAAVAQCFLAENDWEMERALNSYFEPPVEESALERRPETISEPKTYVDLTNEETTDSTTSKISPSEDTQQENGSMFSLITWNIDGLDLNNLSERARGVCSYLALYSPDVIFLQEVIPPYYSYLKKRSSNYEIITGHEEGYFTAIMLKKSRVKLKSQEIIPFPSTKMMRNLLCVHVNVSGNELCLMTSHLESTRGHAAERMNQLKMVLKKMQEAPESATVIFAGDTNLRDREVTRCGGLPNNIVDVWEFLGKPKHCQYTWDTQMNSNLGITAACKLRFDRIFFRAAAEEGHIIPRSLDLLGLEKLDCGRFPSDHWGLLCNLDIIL
Chain of Induced myeloid leukemia cell differentiation protein Mcl-1 (Q07820 whole entry): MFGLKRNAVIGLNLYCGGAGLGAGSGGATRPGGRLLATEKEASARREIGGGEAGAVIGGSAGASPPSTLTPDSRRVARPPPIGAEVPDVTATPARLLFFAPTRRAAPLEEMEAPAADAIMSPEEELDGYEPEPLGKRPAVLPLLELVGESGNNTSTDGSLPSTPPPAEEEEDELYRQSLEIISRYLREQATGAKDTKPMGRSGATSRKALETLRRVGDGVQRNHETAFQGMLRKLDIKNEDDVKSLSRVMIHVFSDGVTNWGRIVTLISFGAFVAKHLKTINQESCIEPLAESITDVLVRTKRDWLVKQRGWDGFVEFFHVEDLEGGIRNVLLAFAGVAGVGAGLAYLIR
Chain of Dual specificity protein kinase CLK1 (P49759 whole entry): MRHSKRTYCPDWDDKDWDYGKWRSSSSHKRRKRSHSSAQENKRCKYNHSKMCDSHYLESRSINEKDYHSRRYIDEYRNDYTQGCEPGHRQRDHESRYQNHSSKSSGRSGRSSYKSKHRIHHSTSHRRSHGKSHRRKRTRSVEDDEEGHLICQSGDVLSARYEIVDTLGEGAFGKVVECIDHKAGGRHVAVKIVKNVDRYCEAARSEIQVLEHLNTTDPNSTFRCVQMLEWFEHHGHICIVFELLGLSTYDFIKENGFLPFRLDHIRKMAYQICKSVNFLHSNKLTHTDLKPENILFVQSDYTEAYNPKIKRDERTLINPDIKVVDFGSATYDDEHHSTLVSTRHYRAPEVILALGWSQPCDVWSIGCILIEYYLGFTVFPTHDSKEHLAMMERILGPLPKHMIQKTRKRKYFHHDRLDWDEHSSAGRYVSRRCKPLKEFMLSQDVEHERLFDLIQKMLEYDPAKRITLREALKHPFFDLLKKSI
Chain of Cytochrome P450 2D6 (P10635 whole entry): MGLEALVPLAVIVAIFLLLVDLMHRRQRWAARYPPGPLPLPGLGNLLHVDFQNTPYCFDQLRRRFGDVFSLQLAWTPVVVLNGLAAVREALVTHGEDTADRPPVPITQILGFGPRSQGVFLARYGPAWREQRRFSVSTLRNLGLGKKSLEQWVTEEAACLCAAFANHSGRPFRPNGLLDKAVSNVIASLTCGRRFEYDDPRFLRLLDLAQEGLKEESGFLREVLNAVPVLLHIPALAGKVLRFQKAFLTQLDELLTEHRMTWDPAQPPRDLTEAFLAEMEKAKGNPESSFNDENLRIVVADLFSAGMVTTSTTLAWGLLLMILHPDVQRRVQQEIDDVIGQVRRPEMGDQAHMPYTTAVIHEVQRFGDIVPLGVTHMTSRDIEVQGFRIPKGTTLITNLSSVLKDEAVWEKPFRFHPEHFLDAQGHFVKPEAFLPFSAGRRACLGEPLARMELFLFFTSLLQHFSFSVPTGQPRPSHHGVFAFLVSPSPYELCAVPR
Chain of Cysteine protease ATG4B (Q9Y4P1 whole entry): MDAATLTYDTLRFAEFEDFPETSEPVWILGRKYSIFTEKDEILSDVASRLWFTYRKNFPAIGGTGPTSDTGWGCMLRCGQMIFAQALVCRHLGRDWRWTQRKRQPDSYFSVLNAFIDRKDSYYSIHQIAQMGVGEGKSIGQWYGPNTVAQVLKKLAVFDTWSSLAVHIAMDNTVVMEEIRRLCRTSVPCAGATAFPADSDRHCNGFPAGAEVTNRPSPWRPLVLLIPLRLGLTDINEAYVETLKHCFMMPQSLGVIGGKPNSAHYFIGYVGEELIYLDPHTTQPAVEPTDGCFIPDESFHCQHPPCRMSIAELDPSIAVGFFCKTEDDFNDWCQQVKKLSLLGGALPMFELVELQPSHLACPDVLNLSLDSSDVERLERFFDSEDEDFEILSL
Chain of Luciferin 4-monooxygenase (P08659 whole entry): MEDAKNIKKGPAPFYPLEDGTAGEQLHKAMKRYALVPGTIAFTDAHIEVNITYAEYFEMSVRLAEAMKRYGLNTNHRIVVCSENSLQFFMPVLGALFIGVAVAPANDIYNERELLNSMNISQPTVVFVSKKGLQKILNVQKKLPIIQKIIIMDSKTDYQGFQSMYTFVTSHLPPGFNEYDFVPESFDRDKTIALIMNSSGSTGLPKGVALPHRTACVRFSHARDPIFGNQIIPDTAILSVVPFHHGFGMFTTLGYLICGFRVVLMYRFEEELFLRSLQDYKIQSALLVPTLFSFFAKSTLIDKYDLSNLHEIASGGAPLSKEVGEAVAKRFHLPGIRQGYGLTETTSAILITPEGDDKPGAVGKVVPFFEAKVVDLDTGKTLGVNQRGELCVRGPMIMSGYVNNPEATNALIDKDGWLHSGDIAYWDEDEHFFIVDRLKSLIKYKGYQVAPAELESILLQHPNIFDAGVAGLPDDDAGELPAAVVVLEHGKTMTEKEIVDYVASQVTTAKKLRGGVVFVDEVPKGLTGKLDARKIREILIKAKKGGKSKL
Chain of Cytochrome P450 3A4 (P08684 whole entry): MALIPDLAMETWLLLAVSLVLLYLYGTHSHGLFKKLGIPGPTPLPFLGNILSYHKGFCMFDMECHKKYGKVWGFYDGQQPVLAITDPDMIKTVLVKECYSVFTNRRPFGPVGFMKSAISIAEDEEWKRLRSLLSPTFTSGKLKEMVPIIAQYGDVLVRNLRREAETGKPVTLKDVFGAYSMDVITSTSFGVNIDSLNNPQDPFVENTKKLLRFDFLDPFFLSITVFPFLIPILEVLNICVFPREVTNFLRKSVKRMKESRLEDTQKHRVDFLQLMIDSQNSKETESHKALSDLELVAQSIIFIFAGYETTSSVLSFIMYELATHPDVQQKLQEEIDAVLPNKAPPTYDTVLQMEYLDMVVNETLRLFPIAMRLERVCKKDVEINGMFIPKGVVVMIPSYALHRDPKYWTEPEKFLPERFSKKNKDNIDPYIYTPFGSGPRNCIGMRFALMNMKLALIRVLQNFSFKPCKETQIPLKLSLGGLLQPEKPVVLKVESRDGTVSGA

NC(=O)CNCCC(c1ccccc1)c1ccccc1
AC50 [1]: 20 µM (inconclusive)
AC50 [2]: 2 µM (inconclusive)
AC50 [3]: 15.8 µM (inconclusive)

Cc1c(CCOC(=O)C23CC4(C)CC(C)(CC(C)(C4)C2)C3)sc[n+]1CC(=O)c1ccccc1
IC50 [4]: 8.57 µM (active)
AC50 [5]: 5.84 µM (active)
EC50 [6]: > 150 µM (inactive)
AC50 [7]: 23.6 µM (active)
IC50 [8]: > 20 µM (inactive)
IC50 [9]: 8.77 µM (active)
AC50 [10]: 7.21 µM (active)
EC50 [11]: > 38 µM (not active)

COc1ccc(-c2nc(CSCC(=O)NCc3ccco3)c(C)o2)cc1
IC50 [12]: > 80 µM (inactive)
IC50 [13]: 67.1 µM (inactive)

O=C(CCl)N(c1ccccc1)C1CCCCC1
AC50 [14]: 4.51 µM (active)
AC50 [15]: 7.54 µM (active)
AC50 [16]: 10.7 µM (active)
AC50 [17]: 4.88 µM (active)
EC50 [18]: 4.98 µM (active)
AC50 [19]: 3.98 µM (active)

COc1cc2c(cc1OC)-c1cc(Nc3ccccc3Br)nc(=O)n1CC2
IC50 [20]: > 80 µM (inactive)
IC50 [21]: > 80 µM (inactive)
EC50 [22]: > 112 µM (not active)
EC50 [23]: 0.115 µM (active)
EC50 [24]: 26.2 µM (active)
EC50 [25]: 13.4 µM (active)

O=C(Nc1nc(-c2ccncc2)cs1)c1ccco1
IC50 [26]: 4.34 µM (active)
AC50 [27]: 1.92 µM (active)
AC50 [28]: 2.56 µM (active)

N#Cc1sc2nc(-c3ccccc3)cc(-c3ccco3)c2c1N
IC50 [29]: > 128 µM (inactive)
IC50 [30]: 40.7 µM (inactive)

Cc1cc(N2CCNCC2)nc2ccccc12
IC50 [31]: 20.4 µM (active)
